Experimental data taken from patent publication US5141947A, “Fibrinolysis-enhancing agents” (Mitsubishi Kasei Corporation, priority 1984, dated 1992).

Key:
[1] = tested on: fibrinolysis of plasma by t-PA (tissue plasminogen activator); experiment: fibrinolysis of plasma aggregation effected by t-PA; 0.15 ml plasma in 0.7 ml total (Examples 2 and 3); type: biochemical, healthy person (human)
Procedure: (§1) One part by volume of 3.8% sodium citrate solution was added to 9 parts by volume of the venous blood of a healthy person and centrifuged at 3,000 rpm for 15 minutes to collect the plasma.
(§2) There was placed 0.6 ml of the plasma into a spectrophotometric microcell having a path length of 10 mm and a path width of 2 mm. After adding 0.015 ml of physiological saline containing the compound (Ia) in various concentrations, the cell was held in the cell holder of a spectrophotometer, Hitachi 220 A, which was maintained at 37° C. and incubated for 5 minutes. Into the cell, there was added 0.025 ml of a solution of 8.0 μg/ml t-PA (tissue plasminogen activator) or 3,000 international units per ml high molecular weight UK, urokinase manufactured by The Green Cross Corporation, and […] CaCl2 solution. Changes in the absorbance at 608 nm were recorded at 37° C. every one minute. Thus, the coagulation and fibrinolysis of the plasma were measured with the time lapse.
(§3) The coagulation time is defined as a time period from the time 0 at which CaCl2 solution is added to a coagulation initiation time at which the absorbance has increased to a value larger by 0.025 than the value at the time 0: i.e., delta A is 0.025. The dissolution time is defined as a time period from the coagulation initiation time to a fibrinolysis termination time at which the absorbance has decreased to a value 10% that of the maximum value.
(§4) The procedures of Example 1 were repeated except that a less amount cf plasma was used. Thus, in the same manner as Example 1, there was collected 0.15 ml of plasma to which 0.1 ml of physiological saline containing the compound (Ia) in various concentrations was added, the total volume was adjusted to 0.375 ml, the resulting mixture was incubated at 37° C. for 5 minutes, 0.025 ml of a solution of 1.6 μg/ml t-PA or 500 international units per ml high molecular weight UK and 0.3 ml of 0.025M CaCl2 solution were added, and the coagulation and fibrinolysis of the plasma were measured with the time lapse to determine the coagulation time and dissolution time.
Activities of arginine derivatives having the thrombin-inhibiting effect and the structural formula shown below on the fibrinolysis by t-PA were estimated in the same manner as Example 2.

[2] = tested on: fibrinolysis of plasma by t-PA (tissue plasminogen activator); experiment: fibrinolysis of plasma aggregation effected by t-PA; 0.6 ml plasma in 0.7 ml total (Example 1); type: biochemical, healthy person (human); details: for Coagulation Time / Dissolution Time: n=5, average ± S.E.M.
Procedure: as §1, §2
(§5) In the FIGURE, the ordinate represents the difference of absorbance (ΔA) at 608 nm and the abscissa represents the time in minutes.
(§6) The effects of the compound (Ia) on the dissolution time and the coagulation time were measured on the plasma from five healthy persons. […] Values in Tables are expressed in the average+S.E.M.
as §3

[3] = tested on: thrombus in carotid artery of rabbit; experiment: in vivo thrombolysis by t-PA, rabbit carotid artery thrombus (Example 4); details: Compound (Ia) 1.2 mg/kg alone
Procedure: The carotid artery of a rabbit was exposed from the surrounding tissue under anesthesia by pentobarbital. The exposed artery was surrounded with absorbent cotton soaked with glacial acetic acid and allowed to stay for 3 hours to form thrombus by the damage done to the endorthelium. The thus formed thrombus was tested for dissolution. Immediately after removing out the cotton, physiological saline in which the substance to be tested had been dissolved was injected through the femoral vein. The infusion was continued over 2 hours. After the infusion, the arterial segment wherein the thrombus had been formed was cut out and the thrombus mass was removed out under a microscope. The thrombus was dissolved in alkali and the protein was quantitatively measured by phenol method.

[4] = tested on: fibrinolysis of plasma by UK (urokinase); experiment: fibrinolysis of plasma aggregation effected by UK; 0.15 ml plasma in 0.7 ml total (Example 2); type: biochemical, healthy person (human)
Procedure: as §1, §2, §3, §4

[5] = tested on: fibrinolysis of plasma by UK (urokinase); experiment: fibrinolysis of plasma aggregation effected by UK; 0.6 ml plasma in 0.7 ml total (Example 1); type: biochemical, healthy person (human); details: for Coagulation Time / Dissolution Time: n=5, average ± S.E.M.
Procedure: as §1, §2, §5, §6, §3

[6] = acute toxicity, LD50, intravenous, male mice; details: mouse, in vivo, male mice weighing 20 g
Procedure: The arginine derivative of the formula (Ia) above was prepared in accordance with Example 2 described in the European Patent Application Publication No. 8746.

[7] = Table 5, 0.3 μM, control 2.9 min
[8] = Table 5, 0.3 μM, control 95.7 min

SMILES: CCC1CCN(C(=O)[C@H](CCCNC(=N)N)NS(=O)(=O)c2ccc3cc(OC)c(OC)cc3c2)C(C(=O)O)C1 (stereo partly shown) [Compound 3]
- Coagulation Time [1, 7]: 3.2 min
- Dissolution Time [1, 8]: 53.4 min

SMILES: CC1CNc2c(cccc2S(=O)(=O)N[C@@H](CCCNC(=N)N)C(=O)N2CC[C@@H](C)C[C@@H]2C(=O)O)C1 (stereo partly drawn) [Compound (Ia), (2R, 4R)-1-[N^2-(3-methyl-1,2,3,4-tetrahydro-8-quinolinesulfonyl)-L-arginyl]-4-methyl-2-piperidinecarboxylic acid]
- dissolution time, in comparison with no addition ([2]; 0.1 μM or 0.3 μM): significantly reduced
- Coagulation Time ([2]; 0.1 μM): 10.6 ± 2.0 min
- Dissolution Time ([2]; 0.1 μM): 33.0 ± 2.0 min
- Coagulation Time ([2]; 0.3 μM): 13.8 ± 2.8 min
- Dissolution Time ([2]; 0.3 μM): 32.0 ± 2.8 min
- thrombolytic effect [3]: no thrombolytic effect
- Thrombus Protein ([3]; 2 h infusion, femoral vein, n=4, saline control 1.97 ± 0.38): 2.03 ± 0.55 mg
- Coagulation Time ([4]; 0.01 μM): prolonged slightly
- Coagulation Time ([4]; 0.01 μM, n=5): 4.9 ± 0.6 min
- Dissolution Time ([4]; 0.01 μM, n=5): 63.8 ± 11.8 min
- Coagulation Time ([4]; 0.03 μM, n=5): 5.5 ± 0.4 min
- Dissolution Time ([4]; 0.03 μM, n=5): 35.9 ± 5.7 min
- Coagulation Time ([4]; 0.1 μM, n=5): 7.4 ± 0.8 min
- Dissolution Time ([4]; 0.1 μM, n=5): 23.4 ± 2.2 min
- dissolution time decreased to fraction of the time without addition ([4]; 0.3 μM): about 1/4
- Coagulation Time ([4]; 0.3 μM, n=5): 9.9 ± 0.8 min
- Dissolution Time ([4]; 0.3 μM, n=5): 22.5 ± 1.3 min
- fibrinolysis ([4]; as low as 0.01 μM): enhanced
- Coagulation Time ([1]; 0.01 μM): prolonged slightly
- Coagulation Time ([1]; 0.01 μM, n=5): 4.5 ± 0.2 min
- Dissolution Time ([1]; 0.01 μM, n=5): 64.1 ± 10.2 min
- Coagulation Time ([1]; 0.03 μM, n=5): 5.0 ± 0.2 min
- Dissolution Time ([1]; 0.03 μM, n=5): 51.6 ± 7.7 min
- Coagulation Time ([1]; 0.1 μM, n=5): 6.7 ± 0.3 min
- Dissolution Time ([1]; 0.1 μM, n=5): 34.5 ± 5.2 min
- dissolution time decreased to fraction of the time without addition ([1]; 0.3 μM): about 1/3
- Coagulation Time ([1]; 0.3 μM, n=5): 9.0 ± 0.3 min
- Dissolution Time ([1]; 0.3 μM, n=5): 26.6 ± 2.4 min
- fibrinolysis ([1]; as low as 0.01 μM): enhanced
- dissolution time, in comparison with no addition ([5]; 0.1 μM or 0.3 μM): significantly reduced
- Coagulation Time ([5]; 0.1 μM): 8.8 ± 1.1 min
- Dissolution Time ([5]; 0.1 μM): 28.2 ± 5.2 min
- Coagulation Time ([5]; 0.3 μM): 10.2 ± 1.4 min
- Dissolution Time ([5]; 0.3 μM): 24.6 ± 4.3 min
- LD50 [6]: 211 mg/kg

SMILES: COCCN(CC(=O)O)C(=O)[C@H](CCCNC(=N)N)NS(=O)(=O)c1ccc2cc(OC)c(OC)cc2c1 [Compound 1]
- Coagulation Time [1, 7]: 3.2 min
- Dissolution Time [1, 8]: 55.4 min

SMILES: COc1ccc2ccc(S(=O)(=O)N[C@@H](CCCNC(=N)N)C(=O)N3CCC(C)CC3C(=O)O)cc2c1 (stereo partly shown) [Compound 2]
- Coagulation Time [1, 7]: 4.1 min
- Dissolution Time [1, 8]: 36.5 min

SMILES: Cc1ccc2ccc(S(=O)(=O)N[C@@H](CCCNC(=N)N)C(=O)N3CCC(C)CC3C(=O)O)cc2c1 (stereo partly shown) [Compound 4]
- Coagulation Time [1, 7]: 3.1 min
- Dissolution Time [1, 8]: 50.5 min
